Experiments:
[1] = target: T1, Metabotropic glutamate receptor 7 (Rattus norvegicus, UniProt P35400); assay: (§1) Positive allosteric modulation of rat mGlu7 receptor expressed in HEK293 cells co-expressing Gai5 assessed as potentiation of L-AP4-induced calcium mobilization preincubated for 140 secs and treated with EC20 L-AP4 for 125 secs and followed by subsequent addition of EC80 L-AP4 by Fluo-4-AM dye based fluorescence assay; format: functional, cell-based
[2] = target: Metabotropic glutamate receptor 7 (Rattus norvegicus) (UniProt P35400); assay: as §1, with “assay relative to maximal induction of L-AP4” for “assay”; format: functional, cell-based; conditions: filed as positive allosteric modulator, time 140.0 sec
Sequence of Metabotropic glutamate receptor 7 (Rattus norvegicus) (P35400 whole entry): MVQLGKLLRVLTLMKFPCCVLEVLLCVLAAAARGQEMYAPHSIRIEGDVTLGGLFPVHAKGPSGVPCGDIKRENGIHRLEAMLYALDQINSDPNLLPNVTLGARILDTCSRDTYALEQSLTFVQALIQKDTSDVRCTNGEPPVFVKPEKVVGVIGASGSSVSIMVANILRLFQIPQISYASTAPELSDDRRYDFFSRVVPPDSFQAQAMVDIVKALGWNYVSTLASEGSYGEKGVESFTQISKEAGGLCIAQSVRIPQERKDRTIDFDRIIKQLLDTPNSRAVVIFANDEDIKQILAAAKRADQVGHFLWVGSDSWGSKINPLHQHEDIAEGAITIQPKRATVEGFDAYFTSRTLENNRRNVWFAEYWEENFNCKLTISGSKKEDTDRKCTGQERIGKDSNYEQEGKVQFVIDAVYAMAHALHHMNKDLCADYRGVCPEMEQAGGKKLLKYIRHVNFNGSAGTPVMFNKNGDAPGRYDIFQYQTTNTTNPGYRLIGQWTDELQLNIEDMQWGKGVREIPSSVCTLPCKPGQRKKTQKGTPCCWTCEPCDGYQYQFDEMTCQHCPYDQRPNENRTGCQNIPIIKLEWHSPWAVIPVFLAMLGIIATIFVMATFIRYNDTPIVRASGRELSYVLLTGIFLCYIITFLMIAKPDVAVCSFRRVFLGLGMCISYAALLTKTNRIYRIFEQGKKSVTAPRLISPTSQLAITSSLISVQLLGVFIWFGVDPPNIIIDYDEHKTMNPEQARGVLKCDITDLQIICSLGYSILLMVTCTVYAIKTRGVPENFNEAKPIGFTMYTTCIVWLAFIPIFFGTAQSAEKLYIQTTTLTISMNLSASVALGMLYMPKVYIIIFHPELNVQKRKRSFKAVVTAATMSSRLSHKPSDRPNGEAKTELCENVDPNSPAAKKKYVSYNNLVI

[3] = target: Sigma non-opioid intracellular receptor 1 (Homo sapiens, UniProt Q99720); assay: Displacement of [3H]-Pentazocine from human recombinant sigma 1 receptor incubated for 120 mins by scintillation counting analysis relative to control
Sequence of Sigma non-opioid intracellular receptor 1 (Q99720 whole entry): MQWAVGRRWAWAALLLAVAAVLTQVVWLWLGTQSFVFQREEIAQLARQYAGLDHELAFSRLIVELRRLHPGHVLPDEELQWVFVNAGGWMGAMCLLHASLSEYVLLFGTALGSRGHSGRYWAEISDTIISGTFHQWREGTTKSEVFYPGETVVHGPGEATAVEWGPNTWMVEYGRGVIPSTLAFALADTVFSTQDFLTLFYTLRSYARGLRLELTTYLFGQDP

[4] = target: T1, Metabotropic glutamate receptor 7; assay: Positive allosteric modulation of rat mGlu7 expressed in HEK293 cells co- expressing GIRK assessed as potentiation of L-AP4-induced thallium flux incubated for 140 sec by FluoZin2-AM dye based fluorescence analysis; format: cell-based
[5] = target: dopamine transporter (DAT) (Homo sapiens, UniProt Q01959); assay: Displacement of […] from recombinant human Dopamine transporter at 10 uM after 120 mins by scintillation counting analysis relative to control; format: ADME
Sequence of dopamine transporter (DAT) (Q01959 whole entry): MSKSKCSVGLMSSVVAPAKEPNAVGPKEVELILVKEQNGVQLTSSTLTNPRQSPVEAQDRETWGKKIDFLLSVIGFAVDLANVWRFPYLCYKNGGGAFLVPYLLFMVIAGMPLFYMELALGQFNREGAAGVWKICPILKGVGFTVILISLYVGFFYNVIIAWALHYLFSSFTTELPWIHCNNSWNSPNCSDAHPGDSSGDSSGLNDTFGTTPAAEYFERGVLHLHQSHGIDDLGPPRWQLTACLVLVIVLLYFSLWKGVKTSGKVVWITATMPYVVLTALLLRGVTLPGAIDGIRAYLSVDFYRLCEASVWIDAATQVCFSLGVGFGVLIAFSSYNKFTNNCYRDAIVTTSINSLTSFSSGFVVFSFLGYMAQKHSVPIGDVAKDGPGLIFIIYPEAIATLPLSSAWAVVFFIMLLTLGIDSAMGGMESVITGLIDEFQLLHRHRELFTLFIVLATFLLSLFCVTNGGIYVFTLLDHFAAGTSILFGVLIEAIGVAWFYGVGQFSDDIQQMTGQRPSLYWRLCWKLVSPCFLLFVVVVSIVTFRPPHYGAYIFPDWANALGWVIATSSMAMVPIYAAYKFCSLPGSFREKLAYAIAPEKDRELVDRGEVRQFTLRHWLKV

[6] = target: T2, Metabotropic glutamate receptor 4 (Homo sapiens, UniProt Q14833); assay: Positive allosteric modulation of mGlu4 receptor (unknown origin)
T2 sequence (Q14833 whole entry): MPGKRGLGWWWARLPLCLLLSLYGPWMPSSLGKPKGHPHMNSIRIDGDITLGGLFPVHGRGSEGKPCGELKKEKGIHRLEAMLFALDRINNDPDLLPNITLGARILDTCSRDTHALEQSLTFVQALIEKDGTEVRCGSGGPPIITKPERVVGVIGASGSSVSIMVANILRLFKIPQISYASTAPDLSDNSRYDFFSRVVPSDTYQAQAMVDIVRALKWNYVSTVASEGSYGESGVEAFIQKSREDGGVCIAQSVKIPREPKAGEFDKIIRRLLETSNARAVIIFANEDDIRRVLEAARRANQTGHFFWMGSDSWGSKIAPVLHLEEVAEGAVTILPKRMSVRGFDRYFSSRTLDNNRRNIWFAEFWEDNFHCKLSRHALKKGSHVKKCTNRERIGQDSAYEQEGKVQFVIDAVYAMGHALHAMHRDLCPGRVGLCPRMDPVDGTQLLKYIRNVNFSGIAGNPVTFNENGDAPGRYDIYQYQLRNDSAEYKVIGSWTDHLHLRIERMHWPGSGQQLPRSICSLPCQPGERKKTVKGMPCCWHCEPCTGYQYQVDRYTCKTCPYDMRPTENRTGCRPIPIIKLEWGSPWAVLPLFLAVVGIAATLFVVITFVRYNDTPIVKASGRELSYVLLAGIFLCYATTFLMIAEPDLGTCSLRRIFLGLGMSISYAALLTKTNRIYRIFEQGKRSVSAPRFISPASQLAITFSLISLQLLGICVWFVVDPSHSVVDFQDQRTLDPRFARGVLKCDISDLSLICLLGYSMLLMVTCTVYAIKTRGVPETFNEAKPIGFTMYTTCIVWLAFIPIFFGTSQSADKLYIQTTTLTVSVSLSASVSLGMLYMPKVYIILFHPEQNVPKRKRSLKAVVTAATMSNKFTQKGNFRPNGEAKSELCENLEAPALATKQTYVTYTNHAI

[7] = Plasma to brain permeability coefficient, Kp of the compound in CD-1 mouse at 10 mg/kg, ip measured after 0.5 hrs by LC-MS/MS analysis; format: ADME, organism-based
[8] = Half-life in Sprague-Dawley rat at 1 mg/kg, iv and 10 mg/kg, po measured up to 24 hrs by LC-MS/MS analysis; format: ADME, organism-based; conditions: in vivo
[9] = Unbound plasma to brain permeability coefficient, Kp of the compound in Sprague-Dawley rat at 0.2 mg/kg, iv measured after 0.25 hrs by LC-MS/MS analysis; format: ADME, organism-based; conditions: read-out: K(p,uu,brain)
[10] = Fraction unbound in rat plasma at 5 uM incubated for 4 hrs by equilibrium dialysis based LC-MS/MS analysis; format: ADME, cell-free
[11] = target: T3, Metabotropic glutamate receptor 8 (Homo sapiens, UniProt O00222); assay: Positive allosteric modulation of mGlu8 receptor (unknown origin)
[12] = target: T4, Metabotropic glutamate receptor 3 (Homo sapiens, UniProt Q14832); assay: Positive allosteric modulation of mGlu3 receptor (unknown origin)
T4 sequence (Q14832 whole entry): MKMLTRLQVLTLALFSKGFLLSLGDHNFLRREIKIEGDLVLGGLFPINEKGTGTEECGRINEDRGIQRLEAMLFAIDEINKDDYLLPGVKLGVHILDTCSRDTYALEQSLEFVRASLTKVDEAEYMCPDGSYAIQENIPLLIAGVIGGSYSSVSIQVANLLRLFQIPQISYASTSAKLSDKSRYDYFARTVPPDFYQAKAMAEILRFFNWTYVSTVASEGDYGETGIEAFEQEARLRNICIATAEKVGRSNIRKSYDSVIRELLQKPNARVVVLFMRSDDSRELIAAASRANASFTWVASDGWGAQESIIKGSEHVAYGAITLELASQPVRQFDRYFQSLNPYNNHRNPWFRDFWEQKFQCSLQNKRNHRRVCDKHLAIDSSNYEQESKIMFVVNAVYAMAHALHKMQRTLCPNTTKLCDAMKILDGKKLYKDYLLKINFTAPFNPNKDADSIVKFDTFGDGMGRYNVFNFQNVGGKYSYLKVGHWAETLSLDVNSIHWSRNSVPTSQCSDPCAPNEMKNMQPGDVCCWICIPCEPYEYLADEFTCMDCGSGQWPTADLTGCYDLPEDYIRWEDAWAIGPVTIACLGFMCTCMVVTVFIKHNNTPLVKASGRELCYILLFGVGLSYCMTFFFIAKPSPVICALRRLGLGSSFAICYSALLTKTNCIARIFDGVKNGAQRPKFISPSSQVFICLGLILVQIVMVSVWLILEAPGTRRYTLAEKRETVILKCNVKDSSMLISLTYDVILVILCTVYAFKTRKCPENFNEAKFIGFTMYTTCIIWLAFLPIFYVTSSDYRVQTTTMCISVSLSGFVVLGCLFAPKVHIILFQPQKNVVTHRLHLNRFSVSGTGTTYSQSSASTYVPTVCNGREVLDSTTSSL

[13] = Unbound plasma to brain permeability coefficient, Kp of the compound in CD-1 mouse at 10 mg/kg, ip measured after 0.5 hrs by LC-MS/MS analysis; format: ADME, organism-based; conditions: read-out: K(p,uu,brain)
[14] = Fraction unbound in mouse brain at 5 uM incubated for 6 hrs by equilibrium dialysis based LC-MS/MS analysis; format: ADME, tissue-based
[15] = target: T5, Metabotropic glutamate receptor 1 (Homo sapiens, UniProt Q13255); assay: Positive allosteric modulation of mGlu1 receptor (unknown origin)
[16] = Hepatic intrinsic clearance in mouse liver microsomes at 1 uM preincubated for 5 mins followed by NADPH addition and measured up to 45 mins by LC-MS/MS analysis; format: ADME, Microsome; conditions: read-out: CLH
[17] = Oral bioavailability in Sprague-Dawley rat at 10 mg/kg measured upto 24 hrs by LC-MS/MS analysis; format: ADME, organism-based; conditions: in vivo
[18] = Fraction unbound in rat brain at 5 uM incubated for 6 hrs by equilibrium dialysis based LC-MS/MS analysis; format: ADME, tissue-based
[19] = Fraction unbound in mouse plasma at 5 uM incubated for 4 hrs by equilibrium dialysis based LC-MS/MS analysis; format: ADME, cell-free
[20] = Plasma to brain permeability coefficient, Kp of the compound in Sprague-Dawley rat at 0.2 mg/kg, iv measured after 0.25 hrs by LC-MS/MS analysis; format: ADME, organism-based
[21] = target: Sodium-dependent dopamine transporter (Homo sapiens, UniProt Q01959); assay: Displacement of […] from recombinant human Dopamine transporter after 120 mins by scintillation counting analysis; format: ADME
Sequence of Sodium-dependent dopamine transporter (Q01959 whole entry): as the sequence (Q01959 whole entry) above

[22] = target: T6, Metabotropic glutamate receptor 2 (Homo sapiens, UniProt Q14416); assay: Positive allosteric modulation of mGlu2 receptor (unknown origin)
T6 sequence (Q14416 whole entry): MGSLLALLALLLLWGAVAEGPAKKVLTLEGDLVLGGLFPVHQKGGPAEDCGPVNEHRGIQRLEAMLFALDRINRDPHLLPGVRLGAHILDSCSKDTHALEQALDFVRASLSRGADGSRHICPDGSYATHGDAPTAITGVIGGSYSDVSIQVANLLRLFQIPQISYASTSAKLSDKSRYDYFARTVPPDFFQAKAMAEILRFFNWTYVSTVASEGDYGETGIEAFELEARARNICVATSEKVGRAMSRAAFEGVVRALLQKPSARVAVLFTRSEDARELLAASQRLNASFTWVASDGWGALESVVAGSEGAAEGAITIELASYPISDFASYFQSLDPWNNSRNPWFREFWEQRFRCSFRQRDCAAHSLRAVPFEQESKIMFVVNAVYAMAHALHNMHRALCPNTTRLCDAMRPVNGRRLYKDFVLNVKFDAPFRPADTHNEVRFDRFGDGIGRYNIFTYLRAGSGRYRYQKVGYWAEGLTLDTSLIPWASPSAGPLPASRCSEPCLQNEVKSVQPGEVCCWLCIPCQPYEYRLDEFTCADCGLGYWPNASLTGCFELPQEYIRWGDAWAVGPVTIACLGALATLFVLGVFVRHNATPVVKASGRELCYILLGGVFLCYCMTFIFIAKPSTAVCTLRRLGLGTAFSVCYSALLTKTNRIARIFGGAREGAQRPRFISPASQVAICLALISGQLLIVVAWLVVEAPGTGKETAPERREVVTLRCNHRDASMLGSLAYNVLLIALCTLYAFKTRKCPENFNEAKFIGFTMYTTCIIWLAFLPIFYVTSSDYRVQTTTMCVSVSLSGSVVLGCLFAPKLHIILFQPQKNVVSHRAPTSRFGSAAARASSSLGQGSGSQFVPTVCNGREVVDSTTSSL

[23] = target: hERG (KCNH2) (Homo sapiens, UniProt Q12809); assay: Displacement of [3H]-Astemizole from human recombinant full length ERG channel at 10 uM incubated for 60 mins by scintillation counting analysis relative to control; conditions: probe [3H]-astemizole
[24] = Hepatic intrinsic clearance in rat liver microsomes at 1 uM preincubated for 5 mins followed by NADPH addition and measured up to 45 mins by LC-MS/MS analysis; format: ADME, Microsome; conditions: read-out: CLH
[25] = target: T7, Metabotropic glutamate receptor 5 (Homo sapiens, UniProt P41594); assay: Positive allosteric modulation of mGlu5 receptor (unknown origin)
[26] = target: T4, Metabotropic glutamate receptor 3; assay: Negative allosteric modulation of mGlu3 receptor (unknown origin)
[27] = target: T5, Metabotropic glutamate receptor 1; assay: Negative allosteric modulation of mGlu1 receptor (unknown origin)
[28] = target: T3, Metabotropic glutamate receptor 8; assay: Negative allosteric modulation of mGlu8 receptor (unknown origin)
[29] = target: T7, Metabotropic glutamate receptor 5; assay: Negative allosteric modulation of mGlu5 receptor (unknown origin)
[30] = target: T2, Metabotropic glutamate receptor 4; assay: Negative allosteric modulation of mGlu4 receptor (unknown origin)
[31] = Unbound plasma to brain permeability coefficient, Kp of the compound in rat; format: ADME, cell-free; conditions: read-out: K(p,uu,brain)
[32] = target: T6, Metabotropic glutamate receptor 2; assay: Negative allosteric modulation of mGlu2 receptor (unknown origin)
[33] = Plasma to brain permeability coefficient, Kp of the compound in rat; format: ADME, cell-free
[34] = target: Metabotropic glutamate receptor 7 (Rattus norvegicus) (UniProt P35400); assay: Positive allosteric modulation of rat mGlu7 expressed in HEK293 cells co- expressing GIRK assessed as potentiation of L-AP4-induced thallium flux incubated for 140 sec by FluoZin2-AM dye based fluorescence analysis relative to maximal induction of L-AP4; format: cell-based; conditions: filed as positive allosteric modulator

T1 sequence (P35400 whole entry): as the sequence (P35400 whole entry) above

Structure (SMILES): N#Cc1cnc2c(O)cccc2c1N1CCN(c2ccccc2F)CC1
- EC50 ([1]; read-out: EC50): > 10000 nM
- Activity [2]: 90%

Structure (SMILES): N#Cc1cnc2c(N3CCC(F)(F)CC3)cccc2c1N1CCN(c2ccccc2F)CC1
- EC50 ([1]; read-out: EC50): > 10000 nM
- Activity [2]: 22%

Structure (SMILES): N#Cc1cnc2c(-n3cncn3)cccc2c1N1CCN(c2ccccc2F)CC1
- EC50 ([1]; read-out: EC50): > 10000 nM
- Activity [2]: 23%

Structure (SMILES): N#Cc1cnc2c(OCC3CCOC3)cccc2c1N1CCN(c2ccccc2F)CC1 (single isomer, unassigned; (+))
- EC50 ([1]; read-out: EC50): 1900 nM

Structure (SMILES): [2H]C([2H])([2H])Oc1cc(F)cc2c(N3CCN(c4ccccc4F)CC3)c(C#N)cnc12
- IC50 [3]: 3.5 µM
- EC50 [4]: 990 nM
- inhibition at 2 h, 10 µM [5]: < 50%
- EC50 [6]: > 30 µM
- Kp at 0.5 h [7]: 2.74
- half-life [8]: 450 min
- Kp uu at 0.25 h [9]: 0.96
- fraction unbound at 4 h, 5 µM [10]: 0.01
- EC50 ([1]; read-out: EC50): 1100 nM
- EC50 ([1]; read-out: pEC50 (converted)): 1580 nM
- EC50 [11]: > 10 µM
- EC50 [12]: > 30 µM
- Kp uu at 0.5 h [13]: 0.23
- fraction unbound at 6 h, 5 µM [14]: 0.001
- EC50 [15]: > 30 µM
- CLint scaled at 1 µM [16]: 84.4 mL/min/kg
- bioavailability [17]: 69.5%
- fraction unbound at 6 h, 5 µM [18]: 0.002
- fraction unbound at 4 h, 5 µM [19]: 0.01
- Kp at 0.25 h [20]: 4.78
- Ki [21]: > 10 µM
- EC50 [22]: > 30 µM
- inhibition at 1 h, 10 µM [23]: < 50%
- CLint scaled at 1 µM [24]: 46.9 mL/min/kg
- EC50 [25]: > 30 µM

Structure (SMILES): N#Cc1cnc2c(N3CCCCC3)cccc2c1N1CCN(c2ccccc2F)CC1
- EC50 ([1]; read-out: EC50): > 10000 nM
- Activity [2]: 24%

Structure (SMILES): N#Cc1cnc2c(OC(F)F)cccc2c1N1CCN(c2ccccc2F)CC1
- EC50 ([1]; read-out: EC50): > 10000 nM
- Activity [2]: 68%

Structure (SMILES): CC(C)Oc1cccc2c(N3CCN(c4ccccc4F)CC3)c(C#N)cnc12
- EC50 ([1]; read-out: EC50): 1250 nM
- Activity [2]: 67%

Structure (SMILES): N#Cc1cnc2c(OC3CCC3)cc(F)cc2c1N1CCN(c2ccccc2F)CC1
- EC50 ([1]; read-out: EC50): > 10000 nM
- Activity [2]: 23%

Structure (SMILES): N#Cc1cnc2c(OC3CCOC3)cccc2c1N1CCN(c2ccccc2F)CC1 (single isomer, unassigned; (-)) [listing 1 of 2 here]
- EC50 ([1]; read-out: EC50): 1100 nM

Structure (SMILES): CCOC(=O)c1cnc2c(OC)cccc2c1N1CCN(c2ccccc2F)CC1
- IC50 [26]: > 30 µM
- IC50 [27]: > 30 µM
- IC50 [28]: > 30 µM
- IC50 [29]: > 30 µM
- IC50 [30]: > 30 µM
- Kp uu [31]: 0.96
- IC50 [32]: > 30 µM
- Kp [33]: 4.7

Structure (SMILES): N#Cc1cnc2c(N3CCCC3)cccc2c1N1CCN(c2ccccc2F)CC1
- EC50 ([1]; read-out: EC50): > 10000 nM
- Activity [2]: 22%

Structure (SMILES): N#Cc1cnc2c(OC3CCOC3)cc(F)cc2c1N1CCN(c2ccccc2F)CC1 (stereo unspecified)
- EC50 ([1]; read-out: EC50): 510 nM
- Activity [2]: 71%

Structure (SMILES): N#Cc1cnc2c(OC(F)F)cc(F)cc2c1N1CCN(c2ccccc2F)CC1
- EC50 ([1]; read-out: EC50): 3800 nM
- Activity [2]: 98%

Structure (SMILES): N#Cc1cnc2c(OCC3CCOC3)cccc2c1N1CCN(c2ccccc2F)CC1 (racemic)
- Activity [2]: 88%

Structure (SMILES): N#Cc1cnc2c(N3CCOCC3)cccc2c1N1CCN(c2ccccc2F)CC1
- EC50 [4]: 710 nM
- Kp uu at 0.25 h [9]: 1.24
- fraction unbound at 4 h, 5 µM [10]: 0.01
- EC50 ([1]; read-out: EC50): 1300 nM
- fraction unbound at 6 h, 5 µM [14]: 0.002
- Activity [2]: 72%
- CLint scaled at 1 µM [16]: 76.2 mL/min/kg
- fraction unbound at 6 h, 5 µM [18]: 0.002
- Activity [34]: 29.5%
- fraction unbound at 4 h, 5 µM [19]: 0.01
- Kp at 0.25 h [20]: 6.84
- Ki [21]: > 10 µM
- CLint scaled at 1 µM [24]: 58.6 mL/min/kg

Structure (SMILES): N#Cc1cnc2c(OC3CCOC3)cccc2c1N1CCN(c2ccccc2F)CC1 (single isomer, unassigned; (+))
- Activity [2]: 85%

Structure (SMILES): N#Cc1cnc2c(OC3CCOC3)cccc2c1N1CCN(c2ccccc2F)CC1 (single isomer, unassigned; (-)) [listing 2 of 2 here]
- Activity [2]: 70%

— ChEMBL document CHEMBL4665820, “Discovery of VU6027459: A First-in-Class Selective and CNS Penetrant mGlu Positive Allosteric Modulator Tool Compound” (ACS Med Chem Lett, 2020)
